Where two headings read alike, the source gives them in different places.
Legend:
[1] = Pharmacokinetics of oral administration in rats (plasma); type: in vivo; conditions: rat; for concentration at 1 h / bioavailability / AUC(0-inf) / AUC(0-t) / CL/F / half-life / Cmax / Tmax: plasma; for concentration at 1 h: 1.0 h postadministration; for bioavailability: oral AUC(0-∞)/intravenous AUC(0-∞), read-out: Bioavailability (F); for AUC(0-t): mean n = 6; for CL/F: read-out: CLz/F (clearance) (converted); for half-life: read-out: T1/2z (biological half-life) (converted); for Cmax / Tmax: po; for Ratio of B/A in plasma level (AUC): ratio of soyasapogenol B to soyasapogenol A in plasma
Procedure: The experiments were performed according to Kamo et al. The rats were divided into three groups (n = 8). All rats were fasted for 14–15 h prior to soyasapogenol A or B administration. All rats were orally administered soyasapogenol A or B via direct stomach intubation.
Blood samples were collected from the tail vein at 0 (pre-dose), 0.25, 0.5, 1, 2, 4, 6, 8, and 24 h after administration. The sample volume was 200 μL. The samples were immediately transferred to a centrifuge tube and treated with a sodium citrate anticoagulant. This fraction was then centrifuged at 10,000 rpm for 10 min, and the upper plasma was collected and placed in a refrigerator at −80 °C for later use.
(§1) The soyasapogenol concentrations in the rat plasma solutions were determined according to the method published in [5]. At first, the plasma samples were thawed to 4 °C and transferred (20 to 100 μL) to an Eppendorf tube. After adding the same volume of 0.2 mol/L sodium acetate buffer to each sample, 3 µL aliquots of glucuronidase (Sigma; extracted from Helix pomatia, containing 95,600 units/mL glucuronidase and 1100 units/mL sulfatase) were added to analyze the glucuronyl- and sulfatide-conjugated forms of the soyasapogenols, and the mixture was incubated at 37 °C for 12 h. The samples were mixed thoroughly, and then they were centrifuged at 10,000 rpm for 15 min. The supernatant was blown with nitrogen gas until it was dry, and residual supernatant was dissolved with 1 mL methanol. Subsequently, after filtration, the samples were analyzed according to the method published in [5].
The bioavailability parameters were calculated by comparing AUCoral postadministration with AUCiv post-soyasapogenol I.V. injection:%Bioavailability = [(AUCoral) × Doseiv/(AUCiv) × Doseoral] × 100
The calculation formula is as follows: F = oral administration AUC(0-∞)/intravenous injection AUC(0-∞).

[2] = Pharmacokinetics of intravenous injection in rats (plasma); type: in vivo; conditions: rat, intravenous (I.V.); for AUC(0-inf) / Cmax / Tmax / AUC(0-t) / half-life: plasma; for AUC(0-t): mean n = 6; for half-life: iv, read-out: T1/2z (half-life) (converted)
Procedure: The rats’ dorsal foot veins were cannulated with a standard syringe needle to administer the soyasapogenol. As presented in Table 5, the dosages of soyasapogenol A were 10 mg/kg and 20 mg/kg, and the dosages of soyasapogenol B were 25 mg/kg and 50 mg/kg. Blood samples were collected from the tail vein just prior to soyasapogenol administration (0 h) and 0.03, 0.08, 0.25, 0.5, 1, 2, 4, 6, 8, and 24 h after soyasapogenol loading; blood soyasapogenol levels were measured immediately. The collected blood sample volume was approximately 200 μL, and the samples were subjected to the same sample pretreatment procedure as described below.
as §1

Caco-2 cell monolayer = tested on: Caco-2 cell monolayer; set-up: method as in PMID 24698352; conditions: cited from earlier work

## CC1(C)C[C@H]2C3=CC[C@@H]4[C@@]5(C)CC[C@H](O)[C@](C)(CO)[C@@H]5CC[C@@]4(C)[C@]3(C)CC[C@@]2(C)[C@H](O)[C@@H]1O [Soyasapogenol A]
[1]; oral, 10 mg/kg by gavage
  concentration at 1 h: 29000 ± 10000 ng/mL
[1]; oral, 20 mg/kg by gavage
  concentration at 1 h: 7000 ± 6000 ng/mL
[1]; 10 mg/kg
  bioavailability: 73.1%
[1]; 20 mg/kg
  bioavailability: 67.3%
[1]; oral (P.O.), 10 mg/kg
  AUC(0-inf): 50.7 µg·h/mL
  AUC(0-t): 35.2 µg·h/mL
  CL/F: 6.57 mL/min/kg
  half-life: 2.55 h
[1]; oral (P.O.), 20 mg/kg
  AUC(0-inf): 95.5 µg·h/mL
  AUC(0-t): 88.6 µg·h/mL
  CL/F: 3.48 mL/min/kg
  half-life: 1.97 h
[1]; 10 mg/kg, oral (P.O.), 10 mg/kg, read-out: Cmax (peak concentration)
  Cmax: 8590 ng/mL
[1]; 10 mg/kg, oral (P.O.), 10 mg/kg, read-out: Tmax (peak time)
  Tmax: 2 h
[1]; 10 mg/kg, oral, at 1.0 h postadministration, printed as the 10 mg/kg dose (second mention), read-out: Cmax
  Cmax: 29000 ng/mL
[1]; 10 mg/kg, oral, printed as the 10 mg/kg dose (second mention), read-out: time of maximum plasma concentration
  Tmax: 1 h
[1]; 20 mg/kg, oral (P.O.), 20 mg/kg, read-out: Cmax (peak concentration)
  Cmax: 29000 ng/mL
[1]; 20 mg/kg, oral (P.O.), 20 mg/kg, read-out: Tmax (peak time)
  Tmax: 1 h
[2]; 10 mg/kg
  AUC(0-inf): 69.4 µg·h/mL
  Cmax: 31700 ng/mL
  Tmax: 1.8 min
  AUC(0-t): 56 µg·h/mL
  CLz/F: 4.8 mL/min/kg
  T1/2z (half-life): 3.535 h
[2]; 20 mg/kg
  AUC(0-inf): 142 µg·h/mL
  Cmax: 102000 ng/mL
  Tmax: 1.8 min
  AUC(0-t): 114 µg·h/mL
  CLz/F: 2.35 mL/min/kg
  T1/2z (half-life): 3.475 h
[2]; 10 mg/kg, 10 mg/kg
  half-life: 3.54 h
[2]; 20 mg/kg, 20 mg/kg
  half-life: 3.48 h

## CC1(C)C[C@@H](O)[C@]2(C)CC[C@]3(C)C(=CC[C@@H]4[C@@]5(C)CC[C@H](O)[C@](C)(CO)[C@@H]5CC[C@]43C)[C@@H]2C1 [Soyasapogenol B]
[1]; 25 mg/kg
  bioavailability: 60.9%
[1]; 50 mg/kg
  bioavailability: 69%
[1]; oral (P.O.), 25 mg/kg
  AUC(0-inf): 111 µg·h/mL
  AUC(0-t): 96 µg·h/mL
  CL/F: 3.02 mL/min/kg
  half-life: 2.29 h
[1]; oral (P.O.), 50 mg/kg
  AUC(0-inf): 178 µg·h/mL
  AUC(0-t): 157 µg·h/mL
  CL/F: 1.87 mL/min/kg
  half-life: 2.27 h
[1]; oral administration, dose not stated
  time needed to reach peak concentration: 8 h
[1]; oral, soyasapogenol B 25 mg/kg column
  Ratio of B/A in plasma level (AUC): 2.17
[1]; oral, soyasapogenol B 50 mg/kg column
  Ratio of B/A in plasma level (AUC): 1.87
[1]; 25 mg/kg, oral (P.O.), 25 mg/kg, read-out: Cmax (peak concentration)
  Cmax: 26400 ng/mL
[1]; 25 mg/kg, oral (P.O.), 25 mg/kg, read-out: Tmax (peak time)
  Tmax: 2 h
[1]; 50 mg/kg, oral (P.O.), 50 mg/kg, read-out: Cmax (peak concentration)
  Cmax: 40300 ng/mL
[1]; 50 mg/kg, oral (P.O.), 50 mg/kg, read-out: Tmax (peak time)
  Tmax: 2 h
[1]; oral administration, dose not distinguished, read-out: Tmax
  Tmax: 2 h
Caco-2 cell monolayer
  amount (%) that permeates into the basolateral side from the apical side: much higher than that of soyasapogenol A
[2]; 25 mg/kg
  AUC(0-inf): 181 µg·h/mL
  Cmax: 43300 ng/mL
  Tmax: 1.8 min
  AUC(0-t): 76.2 µg·h/mL
  CLz/F: 4.1 mL/min/kg
  T1/2z (half-life): 5.138 h
[2]; 50 mg/kg
  AUC(0-inf): 258 µg·h/mL
  Cmax: 66800 ng/mL
  Tmax: 1.8 min
  AUC(0-t): 154 µg·h/mL
  CLz/F: 1.28 mL/min/kg
  T1/2z (half-life): 5.528 h
[2]; 25 mg/kg, 25 mg/kg
  half-life: 5.14 h
[2]; 50 mg/kg, 50 mg/kg
  half-life: 5.53 h
